Measured values published in ChEMBL document CHEMBL1145159 (J Med Chem, 2005).
Peptide text beside a SMILES is read from it.

Key:
[1] = target: T1, Neuronal acetylcholine receptor; alpha2/beta2 (Homo sapiens, UniProt P17787+Q15822); assay: Inhibitory concentration against Nicotinic acetylcholine receptor alpha2-beta2; format: protein-complex assay
[2] = target: T2, Neuronal acetylcholine receptor; alpha3/beta2 (Homo sapiens, UniProt P17787+P32297); assay: Inhibitory concentration against Nicotinic acetylcholine receptor alpha3-beta2; format: protein-complex assay
[3] = target: T3, Neuronal acetylcholine receptor; alpha4/beta2 (Homo sapiens, UniProt P17787+P43681); assay: Inhibitory concentration against Nicotinic acetylcholine receptor alpha4-beta2; format: protein-complex assay
[4] = target: T4, Neuronal acetylcholine receptor subunit alpha-7 (Homo sapiens, UniProt P36544); assay: Inhibitory concentration against Nicotinic acetylcholine receptor alpha 7
[5] = target: T5, Neuronal acetylcholine receptor; alpha3/beta4 (Homo sapiens, UniProt P30926+P32297); assay: Inhibitory concentration against Nicotinic acetylcholine receptor alpha3-beta4; Range is 100-200 nM; format: protein-complex assay
[6] = target: T4, Neuronal acetylcholine receptor subunit alpha-7; assay: Inhibitory concentration against Nicotinic acetylcholine receptor alpha7; Range is 100-200 nM
[7] = target: Neuronal acetylcholine receptor subunit alpha-9 (Homo sapiens, UniProt Q9UGM1); assay: Inhibitory concentration against Nicotinic acetylcholine receptor alpha9; Range is 100-200 nM
[8] = target: Neuronal acetylcholine receptor subunit alpha-3 (Homo sapiens) (UniProt P32297); assay: Maximal response against [Ca2+] permeability and [Ca2+] modulation of alpha-3 nicotinic receptor
[9] = target: T4, Neuronal acetylcholine receptor subunit alpha-7; assay: Maximal response against Nicotinic acetylcholine receptor alpha 7
[10] = target: T2, Neuronal acetylcholine receptor; alpha3/beta2; assay: Maximal response against Nicotinic acetylcholine receptor alpha3-beta2 expressed in HEK293 cells; format: cell-based
[11] = target: T5, Neuronal acetylcholine receptor; alpha3/beta4; assay: Maximal response against Nicotinic acetylcholine receptor alpha3-beta4 expressed in HEK293 cells; format: cell-based
[12] = target: T3, Neuronal acetylcholine receptor; alpha4/beta2; assay: Maximal response against Nicotinic acetylcholine receptor alpha4-beta2 expressed in HEK293 cells; format: cell-based
[13] = Effective concentration against Nicotinic acetylcholine receptor alpha4-beta2 expressed in xenopus oocytes; format: cell-based; conditions: oocyte
[14] = Effective concentration against Nicotinic acetylcholine receptor alpha2-beta4 expressed in xenopus oocytes; format: cell-based; conditions: oocyte
[15] = Effective concentration against Nicotinic acetylcholine receptor alpha3-beta4 expressed in xenopus oocytes; format: cell-based; conditions: oocyte
[16] = Effective concentration against Nicotinic acetylcholine receptor alpha4-beta4 expressed in xenopus oocytes; format: cell-based; conditions: oocyte
[17] = target: T1, Neuronal acetylcholine receptor; alpha2/beta2; assay: Inhibitory concentration against Nicotinic acetylcholine receptor alpha2-beta2; Range is 0.3-1.5 nM; format: protein-complex assay
[18] = target: T2, Neuronal acetylcholine receptor; alpha3/beta2; assay: Inhibitory concentration against Nicotinic acetylcholine receptor alpha3-beta2; Range is 0.3-1.5 nM; format: protein-complex assay
[19] = target: Neuronal acetylcholine receptor; alpha2/beta4 (Homo sapiens, UniProt P30926+Q15822); assay: Inhibitory concentration against Nicotinic acetylcholine receptor alpha2-beta4; Range is 0.3-1.5 nM; format: protein-complex assay
[20] = target: T3, Neuronal acetylcholine receptor; alpha4/beta2; assay: Inhibitory concentration against Nicotinic acetylcholine receptor alpha4-beta2; Range is 0.3-1.5 nM; format: protein-complex assay
[21] = target: Neuronal acetylcholine receptor; alpha4/beta4 (Homo sapiens, UniProt P30926+P43681); assay: Inhibitory concentration against Nicotinic acetylcholine receptor alpha4-beta4; Range is 0.3-1.5 nM; format: protein-complex assay
[22] = target: T4, Neuronal acetylcholine receptor subunit alpha-7; assay: Inhibitory concentration against Nicotinic acetylcholine receptor alpha7; Range is 0.3-1.5 nM
[23] = Inhibitory concentration against Nicotinic acetylcholine receptor alpha-6-alpha-4-beta-4; Range is 0.7-1 nM
[24] = Inhibitory concentration against Nicotinic acetylcholine receptor alpha-6-alpha-3-beta-2; Range is 0.5-8 nM; design: species or system Homo sapiens
[25] = target: T2, Neuronal acetylcholine receptor; alpha3/beta2; assay: Inhibitory concentration against Nicotinic acetylcholine receptor alpha3-beta2; Range is 0.5-8 nM; format: protein-complex assay
[26] = target: T4, Neuronal acetylcholine receptor subunit alpha-7; assay: Inhibitory concentration against Nicotinic acetylcholine receptor alpha7; Range is 0.5-8 nM
[27] = target: T3, Neuronal acetylcholine receptor; alpha4/beta2; assay: Inhibitory concentration against Nicotinic acetylcholine receptor alpha4-beta2; Range is 0.5-8 nM; format: protein-complex assay
[28] = Inhibitory concentration against Nicotinic acetylcholine receptor alpha-6-alpha-3-beta-2; Range is 0.7-1 nM; design: species or system Homo sapiens
[29] = Inhibitory concentration against Nicotinic acetylcholine receptor alpha6-beta4; Range is 0.7-1 nM; design: species or system Homo sapiens

T2 sequence (P17787 whole entry): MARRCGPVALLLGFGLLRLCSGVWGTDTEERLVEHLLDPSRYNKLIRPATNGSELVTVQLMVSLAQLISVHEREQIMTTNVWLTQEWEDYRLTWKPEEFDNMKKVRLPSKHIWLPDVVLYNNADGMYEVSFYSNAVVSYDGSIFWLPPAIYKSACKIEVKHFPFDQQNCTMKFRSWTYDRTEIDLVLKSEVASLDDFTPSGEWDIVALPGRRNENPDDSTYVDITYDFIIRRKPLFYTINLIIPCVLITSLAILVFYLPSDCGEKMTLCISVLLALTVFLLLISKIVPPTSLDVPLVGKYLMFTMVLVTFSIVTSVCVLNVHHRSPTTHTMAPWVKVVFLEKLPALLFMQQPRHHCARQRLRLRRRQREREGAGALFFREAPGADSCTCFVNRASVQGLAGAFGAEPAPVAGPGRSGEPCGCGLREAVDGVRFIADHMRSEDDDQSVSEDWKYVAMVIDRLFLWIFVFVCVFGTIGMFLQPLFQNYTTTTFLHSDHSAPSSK
T2 sequence (P32297 whole entry): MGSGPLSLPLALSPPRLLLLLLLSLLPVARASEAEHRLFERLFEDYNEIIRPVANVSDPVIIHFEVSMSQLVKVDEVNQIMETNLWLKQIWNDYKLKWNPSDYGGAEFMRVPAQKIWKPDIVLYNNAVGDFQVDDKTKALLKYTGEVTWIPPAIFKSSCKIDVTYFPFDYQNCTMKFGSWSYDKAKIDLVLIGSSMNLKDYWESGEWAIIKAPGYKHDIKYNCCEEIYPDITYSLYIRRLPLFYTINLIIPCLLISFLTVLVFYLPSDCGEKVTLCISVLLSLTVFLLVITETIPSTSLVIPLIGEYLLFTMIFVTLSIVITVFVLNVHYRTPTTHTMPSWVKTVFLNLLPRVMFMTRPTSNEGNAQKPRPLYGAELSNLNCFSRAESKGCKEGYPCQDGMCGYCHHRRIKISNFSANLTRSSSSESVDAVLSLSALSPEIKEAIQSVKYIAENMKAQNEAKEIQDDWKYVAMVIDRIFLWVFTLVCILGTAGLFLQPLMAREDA
T3 sequence (P17787 whole entry): as the sequence (P17787 whole entry) above
T3 sequence (P43681 whole entry): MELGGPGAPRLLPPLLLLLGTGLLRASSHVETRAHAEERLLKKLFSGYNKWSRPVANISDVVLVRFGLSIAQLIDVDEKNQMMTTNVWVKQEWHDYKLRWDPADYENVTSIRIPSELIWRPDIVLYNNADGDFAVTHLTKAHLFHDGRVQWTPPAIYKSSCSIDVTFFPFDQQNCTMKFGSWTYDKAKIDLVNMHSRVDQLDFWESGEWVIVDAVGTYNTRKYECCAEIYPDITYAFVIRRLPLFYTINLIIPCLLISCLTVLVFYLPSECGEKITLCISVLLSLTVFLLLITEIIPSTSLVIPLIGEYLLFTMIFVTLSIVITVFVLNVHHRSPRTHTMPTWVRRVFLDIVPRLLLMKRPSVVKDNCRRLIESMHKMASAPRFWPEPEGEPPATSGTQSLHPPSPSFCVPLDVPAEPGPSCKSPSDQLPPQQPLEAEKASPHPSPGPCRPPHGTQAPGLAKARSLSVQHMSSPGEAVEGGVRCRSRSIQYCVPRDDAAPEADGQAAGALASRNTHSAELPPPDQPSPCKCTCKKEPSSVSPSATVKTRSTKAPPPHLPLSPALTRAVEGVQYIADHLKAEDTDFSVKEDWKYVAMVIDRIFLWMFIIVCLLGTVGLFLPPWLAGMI
T4 sequence (P36544 whole entry): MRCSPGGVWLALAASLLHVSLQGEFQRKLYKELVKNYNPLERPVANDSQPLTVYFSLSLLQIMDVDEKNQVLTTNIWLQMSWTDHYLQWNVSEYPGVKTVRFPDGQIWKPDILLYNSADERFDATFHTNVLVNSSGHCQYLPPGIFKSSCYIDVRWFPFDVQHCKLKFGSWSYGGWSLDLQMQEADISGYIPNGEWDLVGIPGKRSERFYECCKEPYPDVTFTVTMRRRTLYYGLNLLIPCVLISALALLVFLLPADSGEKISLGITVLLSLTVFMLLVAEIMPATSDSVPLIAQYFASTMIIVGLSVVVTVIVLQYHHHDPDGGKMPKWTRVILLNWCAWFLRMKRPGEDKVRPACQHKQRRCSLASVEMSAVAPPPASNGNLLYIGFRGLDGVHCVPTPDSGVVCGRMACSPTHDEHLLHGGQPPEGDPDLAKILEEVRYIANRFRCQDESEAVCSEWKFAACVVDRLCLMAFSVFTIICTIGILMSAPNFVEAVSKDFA
T1 sequence (P17787 whole entry): as the sequence (P17787 whole entry) above
T1 sequence (Q15822 whole entry): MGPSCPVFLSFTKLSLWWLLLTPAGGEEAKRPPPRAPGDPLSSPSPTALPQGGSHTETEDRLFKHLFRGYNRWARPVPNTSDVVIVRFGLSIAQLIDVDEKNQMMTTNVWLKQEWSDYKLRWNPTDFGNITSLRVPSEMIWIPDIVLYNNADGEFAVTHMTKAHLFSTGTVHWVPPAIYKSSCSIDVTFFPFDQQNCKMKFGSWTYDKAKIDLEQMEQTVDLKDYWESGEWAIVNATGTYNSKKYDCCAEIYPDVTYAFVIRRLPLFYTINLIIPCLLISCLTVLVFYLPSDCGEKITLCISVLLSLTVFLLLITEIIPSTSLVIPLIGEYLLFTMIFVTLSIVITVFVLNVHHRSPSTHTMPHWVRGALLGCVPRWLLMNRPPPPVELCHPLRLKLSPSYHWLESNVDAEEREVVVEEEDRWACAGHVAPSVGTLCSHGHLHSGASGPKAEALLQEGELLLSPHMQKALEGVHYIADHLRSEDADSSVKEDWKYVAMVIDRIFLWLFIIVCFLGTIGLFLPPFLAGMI
Sequence of Neuronal acetylcholine receptor subunit alpha-9 (Q9UGM1 whole entry): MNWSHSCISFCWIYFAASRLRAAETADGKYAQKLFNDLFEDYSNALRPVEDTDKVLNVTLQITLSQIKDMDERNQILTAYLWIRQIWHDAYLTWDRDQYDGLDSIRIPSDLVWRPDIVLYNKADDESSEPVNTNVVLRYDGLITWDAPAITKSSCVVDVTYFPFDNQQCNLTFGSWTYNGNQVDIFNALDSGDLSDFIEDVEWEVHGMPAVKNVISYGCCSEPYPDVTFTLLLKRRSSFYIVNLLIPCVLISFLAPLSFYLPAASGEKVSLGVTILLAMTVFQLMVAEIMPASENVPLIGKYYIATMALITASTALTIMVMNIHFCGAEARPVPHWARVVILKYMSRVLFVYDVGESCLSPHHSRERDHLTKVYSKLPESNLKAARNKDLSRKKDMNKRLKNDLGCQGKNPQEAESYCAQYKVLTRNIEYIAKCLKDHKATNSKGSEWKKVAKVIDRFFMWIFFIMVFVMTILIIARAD
Sequence of Neuronal acetylcholine receptor; alpha4/beta4 (P30926 whole entry): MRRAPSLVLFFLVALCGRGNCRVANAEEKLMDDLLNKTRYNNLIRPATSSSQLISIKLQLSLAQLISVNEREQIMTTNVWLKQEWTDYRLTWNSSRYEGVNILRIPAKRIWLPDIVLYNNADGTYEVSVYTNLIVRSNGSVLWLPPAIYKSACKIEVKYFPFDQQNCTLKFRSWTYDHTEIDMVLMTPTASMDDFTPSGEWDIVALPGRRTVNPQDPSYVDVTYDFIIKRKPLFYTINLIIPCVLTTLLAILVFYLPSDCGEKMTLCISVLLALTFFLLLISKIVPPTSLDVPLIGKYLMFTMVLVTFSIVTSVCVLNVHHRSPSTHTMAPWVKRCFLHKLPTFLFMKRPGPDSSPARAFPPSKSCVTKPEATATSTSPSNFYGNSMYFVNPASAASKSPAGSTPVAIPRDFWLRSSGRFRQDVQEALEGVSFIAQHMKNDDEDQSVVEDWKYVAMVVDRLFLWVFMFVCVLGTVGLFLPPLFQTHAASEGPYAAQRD
Sequence of Neuronal acetylcholine receptor; alpha4/beta4 (P43681 whole entry): as the sequence (P43681 whole entry) above
Sequence of Neuronal acetylcholine receptor; alpha2/beta4 (P30926 whole entry): as the sequence (P30926 whole entry) above
Sequence of Neuronal acetylcholine receptor; alpha2/beta4 (Q15822 whole entry): as the sequence (Q15822 whole entry) above
T5 sequence (P30926 whole entry): as the sequence (P30926 whole entry) above
T5 sequence (P32297 whole entry): as the sequence (P32297 whole entry) above
Sequence of Neuronal acetylcholine receptor subunit alpha-3 (Homo sapiens) (P32297 whole entry): as above

**Q.** For `CC(C)C[C@H](NC(=O)[C@H](CO)NC(=O)[C@H](CS)NC(=O)[C@H](CS)NC(=O)CN)C(=O)N1CCC[C@H]1C(=O)N1CCC[C@H]1C(=O)N[C@@H](CS)C(=O)N[C@@H](C)C(=O)N[C@@H](C)C(=O)N[C@@H](CC(N)=O)C(=O)N[C@@H](CC(N)=O)C(=O)N1CCC[C@H]1C(=O)N[C@@H](CC(=O)O)C(=O)N[C@@H](Cc1ccc(O)cc1)C(=O)N[C@@H](CS)C(N)=O` (H-GCCSLPPCAANNPDYC-NH2), which IC50 [1] is on record?
**A.** 9.6 nM

**Q.** What about the IC50 [2] of the same molecule?
**A.** 9.6 nM

**Q.** What about the IC50 [3] of the same molecule?
**A.** 9.6 nM

**Q.** What about the IC50 [4] of the same molecule?
**A.** 9.6 nM

**Q.** What does the source list for `C[C@H](NC(=O)[C@H](CS)NC(=O)[C@H](CCCN=C(N)N)NC(=O)[C@@H]1CCCN1C(=O)[C@H](CC(=O)O)NC(=O)[C@H](CO)NC(=O)[C@H](CS)NC(=O)[C@H](CS)NC(=O)CN)C(=O)N[C@@H](Cc1c[nH]c2ccccc12)C(=O)N[C@@H](CCCN=C(N)N)C(N)=O` (H-GCCSDPRCAWR-NH2)?
**A.** IC50 [5]: 200 nM; IC50 [6]: 200 nM; IC50 [7]: 200 nM

**Q.** For `CC(=O)OCC[N+](C)(C)C` [ACETYLCHOLINE], which Rmax [8] is on record?
**A.** 100%

**Q.** What about the Rmax [9] of the same molecule?
**A.** 97%

**Q.** What about the Rmax [10] of the same molecule?
**A.** 150%

**Q.** What about the Rmax [11] of the same molecule?
**A.** 100%

**Q.** And the Rmax [12]?
**A.** 172%

**Q.** What about the EC50 [13] of the same molecule?
**A.** 68000 nM

**Q.** What about the EC50 [14] of the same molecule?
**A.** 83000 nM

**Q.** And the EC50 [15]?
**A.** 203000 nM

**Q.** What about the EC50 [16] of the same molecule?
**A.** 20000 nM

**Q.** With `C[C@H](NC(=O)[C@H](Cc1ccccc1)NC(=O)[C@H](CS)NC(=O)[C@@H]1CCCN1C(=O)[C@@H]1CCCN1C(=O)[C@H](Cc1ccc(O)cc1)NC(=O)[C@H](CO)NC(=O)[C@H](CS)NC(=O)[C@H](CS)NC(=O)CN)C(=O)N[C@H](C(=O)N[C@@H](CC(N)=O)C(=O)N1CCC[C@H]1C(=O)N[C@@H](CC(=O)O)C(=O)N[C@H](C=O)CS)[C@@H](C)O` as the molecule, how does the IC50 [17] read?
**A.** 0.75 nM

**Q.** What about the IC50 [18] of the same molecule?
**A.** 0.75 nM

**Q.** What about the IC50 [19] of the same molecule?
**A.** 0.75 nM

**Q.** And the IC50 [20]?
**A.** 0.75 nM

**Q.** What about the IC50 [21] of the same molecule?
**A.** 0.75 nM

**Q.** And the IC50 [22]?
**A.** 0.75 nM

**Q.** With `CC(C)C[C@H](NC(=O)[C@H](CC(N)=O)NC(=O)[C@H](CO)NC(=O)[C@H](Cc1c[nH]cn1)NC(=O)[C@H](CCC(=O)O)NC(=O)[C@H](CC(C)C)NC(=O)[C@H](Cc1c[nH]cn1)NC(=O)[C@H](CS)NC(=O)[C@@H](NC(=O)[C@@H]1CCCN1C(=O)[C@H](CC(N)=O)NC(=O)[C@H](CO)NC(=O)[C@H](CS)NC(=O)[C@H](CS)NC(=O)CN)C(C)C)C(=O)N[C@@H](CS)C(N)=O` as the molecule, how does the IC50 [23] read?
**A.** 8 nM

**Q.** And the IC50 [24]?
**A.** 8 nM

**Q.** And the IC50 [25]?
**A.** 8 nM

**Q.** And the IC50 [26]?
**A.** 8 nM

**Q.** What about the IC50 [27] of the same molecule?
**A.** 8 nM

**Q.** Which results are given for `CC[C@H](C)[C@H](NC(=O)[C@H](CCC(N)=O)NC(=O)[C@@H]1CCCN1C(=O)[C@H](CC(N)=O)NC(=O)[C@H](Cc1c[nH]cn1)NC(=O)[C@@H](NC(=O)[C@@H](NC(=O)[C@H](CS)NC(=O)[C@@H](NC(=O)[C@@H]1CCCN1C(=O)[C@H](CC(N)=O)NC(=O)[C@H](CO)NC(=O)[C@H](CS)NC(=O)[C@H](CS)NC(=O)[C@@H]1CCCN1C(=O)[C@@H](N)CC(=O)O)C(C)C)[C@@H](C)O)C(C)C)C(=O)N[C@@H](CS)C(N)=O` (H-DPCCSNPVCTVHNPQIC-NH2)?
**A.** IC50 [28]: 1 nM; IC50 [29]: 1 nM
